Measurements: PMC6299892 (Journal of Genetic Engineering & Biotechnology, 2016)

System: A. pullulans NAC8 yellow laccase
Assay: absorbance at […] nm, double reciprocal plot
Format: biochemical, Aureobasidium pullulans
Conditions: guaiacol 0.1-3.0 mM; standard assay: acetate buffer pH 5.0, 25 °C

COc1ccccc1O [guaiacol, 2-methoxyphenol]
Km: 1050 ± 120 µM
